Measurements from BigSolDB 2.1.

## O=c1c(-c2ccc(O)cc2)coc2cc(O[C@@H]3O[C@H](CO)[C@@H](O)[C@H](O)[C@H]3O)ccc12
In THF, 283.2 K
  solubility (mole fraction): 0.000784
In THF, 293.2 K
  solubility (mole fraction): 0.00182
In THF, 303.2 K
  solubility (mole fraction): 0.00684
In THF, 313.2 K
  solubility (mole fraction): 0.0165
In THF, 323.2 K
  solubility (mole fraction): 0.0417
In acetone, 283.2 K
  solubility (mole fraction): 0.000148
In acetone, 293.2 K
  solubility (mole fraction): 0.000241
In acetone, 303.2 K
  solubility (mole fraction): 0.000326
In acetone, 313.2 K
  solubility (mole fraction): 0.000458
In acetone, 323.2 K
  solubility (mole fraction): 0.000553
In acetonitrile, 283.2 K
  solubility (mole fraction): 5.77e-06
In acetonitrile, 293.2 K
  solubility (mole fraction): 9e-06
In acetonitrile, 303.2 K
  solubility (mole fraction): 1.4e-05
In acetonitrile, 313.2 K
  solubility (mole fraction): 2e-05
In acetonitrile, 323.2 K
  solubility (mole fraction): 3.3e-05
In chloroform, 283.2 K
  solubility (mole fraction): 3.83e-07
In chloroform, 293.2 K
  solubility (mole fraction): 8.76e-07
In chloroform, 303.2 K
  solubility (mole fraction): 1.6e-06
In chloroform, 313.2 K
  solubility (mole fraction): 2.36e-06
In chloroform, 323.2 K
  solubility (mole fraction): 3.2e-06
In cyclohexane, 283.2 K
  solubility (mole fraction): 1.25e-07
In cyclohexane, 293.2 K
  solubility (mole fraction): 2.95e-07
In cyclohexane, 303.2 K
  solubility (mole fraction): 5.56e-07
In cyclohexane, 313.2 K
  solubility (mole fraction): 1.02e-06
In cyclohexane, 323.2 K
  solubility (mole fraction): 1.37e-06
In ethanol, 283.2 K
  solubility (mole fraction): 0.000291
In ethanol, 293.2 K
  solubility (mole fraction): 0.000397
In ethanol, 303.2 K
  solubility (mole fraction): 0.000499
In ethanol, 313.2 K
  solubility (mole fraction): 0.000669
In ethanol, 323.2 K
  solubility (mole fraction): 0.000813
In ethyl acetate, 283.2 K
  solubility (mole fraction): 5.38e-06
In ethyl acetate, 293.2 K
  solubility (mole fraction): 7.88e-06
In ethyl acetate, 303.2 K
  solubility (mole fraction): 1.58e-05
In ethyl acetate, 313.2 K
  solubility (mole fraction): 4.24e-05
In ethyl acetate, 323.2 K
  solubility (mole fraction): 6.74e-05
In isopropanol, 283.2 K
  solubility (mole fraction): 0.00016
In isopropanol, 293.2 K
  solubility (mole fraction): 0.000202
In isopropanol, 303.2 K
  solubility (mole fraction): 0.000283
In isopropanol, 313.2 K
  solubility (mole fraction): 0.000427
In isopropanol, 323.2 K
  solubility (mole fraction): 0.000503
In methanol, 283.2 K
  solubility (mole fraction): 8.78e-05
In methanol, 293.2 K
  solubility (mole fraction): 0.000162
In methanol, 303.2 K
  solubility (mole fraction): 0.000339
In methanol, 313.2 K
  solubility (mole fraction): 0.000516
In methanol, 323.2 K
  solubility (mole fraction): 0.000794
In n-butanol, 283.2 K
  solubility (mole fraction): 0.000141
In n-butanol, 293.2 K
  solubility (mole fraction): 0.000211
In n-butanol, 303.2 K
  solubility (mole fraction): 0.000253
In n-butanol, 313.2 K
  solubility (mole fraction): 0.000353
In n-butanol, 323.2 K
  solubility (mole fraction): 0.000479
In water, 283.2 K
  solubility (mole fraction): 2.36e-06
In water, 293.2 K
  solubility (mole fraction): 4.1e-06
In water, 303.2 K
  solubility (mole fraction): 6.91e-06
In water, 313.2 K
  solubility (mole fraction): 9.39e-06
In water, 323.2 K
  solubility (mole fraction): 1.58e-05
